Experimental data reported in ChEMBL document CHEMBL3585327 (Medchemcomm, 2014).

Experiments:
[1] = biological target: T1, D(2) dopamine receptor (Homo sapiens, UniProt P14416); test: Agonist activity at human dopamine D2L receptor expressed in CHO cell membranes after 1 hr by [35S]-GTPgammaS binding assay; format: functional
[2] = biological target: T1, D(2) dopamine receptor; test: Agonist activity at human dopamine D2L receptor expressed in CHO cell membranes after 1 hr by [35S]-GTPgammaS binding assay relative to 100 uM quinelorane; format: functional
[3] = biological target: T1, D(2) dopamine receptor; test: Potency index, ratio of quinelorane EC50 to compound EC50 for human dopamine D2L receptor expressed in CHO cell membranes; format: cell-based
[4] = biological target: D(1A) dopamine receptor (Homo sapiens, UniProt P21728); test: Binding affinity to human dopamine D1 receptor
[5] = biological target: T1, D(2) dopamine receptor; test: Binding affinity to human dopamine D2 receptor
[6] = biological target: T2, D(4) dopamine receptor (Homo sapiens, UniProt P21917); test: Binding affinity to human dopamine D4 receptor
T2 sequence (P21917 whole entry): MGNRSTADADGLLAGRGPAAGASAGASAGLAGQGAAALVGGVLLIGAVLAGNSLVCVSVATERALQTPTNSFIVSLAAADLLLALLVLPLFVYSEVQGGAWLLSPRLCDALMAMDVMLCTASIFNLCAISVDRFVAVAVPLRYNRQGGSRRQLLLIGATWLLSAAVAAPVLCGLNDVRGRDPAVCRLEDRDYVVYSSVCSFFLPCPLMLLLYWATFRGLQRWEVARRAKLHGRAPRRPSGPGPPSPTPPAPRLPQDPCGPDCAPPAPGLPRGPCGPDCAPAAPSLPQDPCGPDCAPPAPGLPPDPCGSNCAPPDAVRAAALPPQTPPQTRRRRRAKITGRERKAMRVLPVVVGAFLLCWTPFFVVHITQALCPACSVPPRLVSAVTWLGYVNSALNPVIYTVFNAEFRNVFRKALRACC

[7] = biological target: D(1B) dopamine receptor (Homo sapiens, UniProt P21918); test: Binding affinity to human dopamine D5 receptor
D(1B) dopamine receptor, sequence (P21918 whole entry): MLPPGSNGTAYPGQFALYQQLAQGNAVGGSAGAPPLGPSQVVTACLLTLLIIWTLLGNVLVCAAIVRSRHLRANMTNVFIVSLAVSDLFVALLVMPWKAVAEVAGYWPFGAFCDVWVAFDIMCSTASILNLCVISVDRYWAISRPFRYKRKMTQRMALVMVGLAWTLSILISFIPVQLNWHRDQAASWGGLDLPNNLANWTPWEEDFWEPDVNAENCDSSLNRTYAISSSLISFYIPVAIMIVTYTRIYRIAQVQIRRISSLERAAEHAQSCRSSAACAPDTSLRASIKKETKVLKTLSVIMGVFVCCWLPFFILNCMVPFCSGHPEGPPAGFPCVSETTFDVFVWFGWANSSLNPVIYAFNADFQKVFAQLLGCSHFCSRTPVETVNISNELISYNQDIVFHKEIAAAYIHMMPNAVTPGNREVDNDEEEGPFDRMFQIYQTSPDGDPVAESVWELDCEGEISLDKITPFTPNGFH

T1 sequence (P14416 whole entry): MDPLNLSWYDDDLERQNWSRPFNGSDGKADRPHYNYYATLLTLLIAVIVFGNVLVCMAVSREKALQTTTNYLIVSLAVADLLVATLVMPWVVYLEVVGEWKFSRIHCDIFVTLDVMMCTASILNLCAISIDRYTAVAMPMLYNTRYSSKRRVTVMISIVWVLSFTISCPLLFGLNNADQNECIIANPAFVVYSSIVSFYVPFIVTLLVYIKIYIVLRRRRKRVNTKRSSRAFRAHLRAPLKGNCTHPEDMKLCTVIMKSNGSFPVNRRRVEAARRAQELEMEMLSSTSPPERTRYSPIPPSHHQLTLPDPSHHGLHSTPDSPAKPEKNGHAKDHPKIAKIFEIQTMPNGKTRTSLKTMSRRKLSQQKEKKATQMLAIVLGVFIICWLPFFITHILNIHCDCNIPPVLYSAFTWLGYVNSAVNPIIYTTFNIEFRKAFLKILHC
D(1A) dopamine receptor, sequence (P21728 whole entry): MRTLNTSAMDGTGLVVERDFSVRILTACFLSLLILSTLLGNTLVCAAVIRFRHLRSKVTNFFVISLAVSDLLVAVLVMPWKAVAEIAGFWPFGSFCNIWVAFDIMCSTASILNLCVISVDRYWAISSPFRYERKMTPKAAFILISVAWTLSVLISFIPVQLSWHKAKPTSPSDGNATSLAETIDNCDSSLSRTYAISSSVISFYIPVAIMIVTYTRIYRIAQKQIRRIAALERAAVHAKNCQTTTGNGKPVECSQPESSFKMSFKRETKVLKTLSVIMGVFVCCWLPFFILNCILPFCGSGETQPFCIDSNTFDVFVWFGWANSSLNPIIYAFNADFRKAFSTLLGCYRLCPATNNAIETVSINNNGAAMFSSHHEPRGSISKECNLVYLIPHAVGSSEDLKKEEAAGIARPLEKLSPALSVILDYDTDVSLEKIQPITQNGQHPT

SMILES | EC50 ([1]; read-out: EC50) | Emax [2] | further results
CCCNCCc1cccc2c1CC(=O)N2 | 85 nM | 92% | 
CCCN(CCCNC(=O)CCC(=O)NCCCN(CCC)CCc1cccc2c1CC(=O)N2)CCc1cccc2c1CC(=O)N2 | 28 nM | 94% | 
CCCN(CCCC(=O)OCC)CCc1cccc2c1CC(=O)N2 | 55 nM | 90% | 
CCCN(CCCNC(=O)CCCCCCCCCCCCCCC(=O)NCCCN(CCC)CCc1cccc2c1CC(=O)N2)CCc1cccc2c1CC(=O)N2 | 6.2 nM | 85% | Ratio EC50 [3]: 3
CCCN(CCCNC(=O)CCCCCCC(=O)NCCCN(CCC)CCc1cccc2c1CC(=O)N2)CCc1cccc2c1CC(=O)N2 | 22 nM | 99% | 
CCCN(CCCNC(=O)CCCCCCCCCCC(=O)NCCCN(CCC)CCc1cccc2c1CC(=O)N2)CCc1cccc2c1CC(=O)N2 | 3.9 nM | 85% | Ratio EC50 [3]: 3
CCCN1CCC[C@@H]2Cc3nc(N)ncc3C[C@H]21 [QUINELORANE] | 45 nM |  | 
CCCN(CCC)CCc1cccc2c1CC(=O)N2 [ROPINIROLE] |  |  | Ki [4]: 32500 nM; Ki [5]: 3.7 nM; Ki [6]: 7.8 nM; Ki [7]: 41200 nM
CCCCCCCCCC(=O)NCCCN(CCC)CCc1cccc2c1CC(=O)N2 | 42 nM | 78% | 
CCCN(CCCNC(=O)OC(C)(C)C)CCc1cccc2c1CC(=O)N2 | 219 nM | 69% | 
CCCN(CCCNC(=O)CCCCCCCCCCCCCCCCCCC(=O)NCCCN(CCC)CCc1cccc2c1CC(=O)N2)CCc1cccc2c1CC(=O)N2 | 14 nM | 58% | Ratio EC50 [3]: 3
CCCN(CCCNC(=O)OC(C)(C)C)CCc1cccc2c1CC(=O)N2CCCNC(=O)OC(C)(C)C | 1410 nM | 45% | EC50 ([1]; read-out: pEC50 (converted)): 1450 nM
CCCN(CCCNC(=O)CCC(=O)O)CCc1cccc2c1CC(=O)N2 | 4680 nM | 72% | 
